These are literature values, as cited in patent publication US8686040B2, “Method for treating anal pruritis and other perianal disorders” (RDD Pharma Ltd., priority 2008, dated 2014).

The conditions of data set [1]: relative to gabapentin.

Turning to `CC(C)C[C@H](CN)CC(=O)O` [Pregabalin], the “time to reach peak concentration after oral ingestion” value is at most 90 min. Also, the “absorption when administered orally” value (oral) is recorded as “greater than 90%”. In addition, the lipid solubility entry in data set [1] was “higher lipid solubility than gabapentin”.
